In ChEMBL document CHEMBL4330135, “Discovery of 2-phenylthiazole-4-carboxylic acid, a novel and potent scaffold as xanthine oxidase inhibitors” (Bioorg Med Chem Lett, 2019):
The source made the active and inactive calls. No cut-off for these calls is given here.

Assays:
[1] = molecular target: T1, Xanthine dehydrogenase/oxidase (Bos taurus, UniProt P80457); test: Inhibition of bovine milk xanthine oxidase using xanthine as substrate preincubated for 3 mins followed by substrate addition and measured at 1 min for 10 mins
[2] = system: Mus musculus; test: Hypouricemic effect in ICR mouse model of potassium oxonate and hypoxanthine-induced acute hyperuricemia assessed as reduction in serum uric acids level at 20 mg/kg, po dosed 1 hr after potassium oxonate and hypoxanthine challenge and measured after 1 hr; assay type: functional, organism-based
[3] = molecular target: T1, Xanthine dehydrogenase/oxidase; test: Inhibition of bovine milk xanthine oxidase at 10 uM using xanthine as substrate preincubated for 3 mins followed by substrate addition and measured at 1 min for 10 mins relative to control; conditions: cattle
[4] = system: Mus musculus; test: Hypouricemic effect in ICR mouse model of potassium oxonate and hypoxanthine-induced acute hyperuricemia assessed as reduction in serum uric acids level at 5 mg/kg, po dosed 1 hr after potassium oxonate and hypoxanthine challenge and measured after 1 hr; assay type: functional, organism-based

T1 sequence (P80457 whole entry): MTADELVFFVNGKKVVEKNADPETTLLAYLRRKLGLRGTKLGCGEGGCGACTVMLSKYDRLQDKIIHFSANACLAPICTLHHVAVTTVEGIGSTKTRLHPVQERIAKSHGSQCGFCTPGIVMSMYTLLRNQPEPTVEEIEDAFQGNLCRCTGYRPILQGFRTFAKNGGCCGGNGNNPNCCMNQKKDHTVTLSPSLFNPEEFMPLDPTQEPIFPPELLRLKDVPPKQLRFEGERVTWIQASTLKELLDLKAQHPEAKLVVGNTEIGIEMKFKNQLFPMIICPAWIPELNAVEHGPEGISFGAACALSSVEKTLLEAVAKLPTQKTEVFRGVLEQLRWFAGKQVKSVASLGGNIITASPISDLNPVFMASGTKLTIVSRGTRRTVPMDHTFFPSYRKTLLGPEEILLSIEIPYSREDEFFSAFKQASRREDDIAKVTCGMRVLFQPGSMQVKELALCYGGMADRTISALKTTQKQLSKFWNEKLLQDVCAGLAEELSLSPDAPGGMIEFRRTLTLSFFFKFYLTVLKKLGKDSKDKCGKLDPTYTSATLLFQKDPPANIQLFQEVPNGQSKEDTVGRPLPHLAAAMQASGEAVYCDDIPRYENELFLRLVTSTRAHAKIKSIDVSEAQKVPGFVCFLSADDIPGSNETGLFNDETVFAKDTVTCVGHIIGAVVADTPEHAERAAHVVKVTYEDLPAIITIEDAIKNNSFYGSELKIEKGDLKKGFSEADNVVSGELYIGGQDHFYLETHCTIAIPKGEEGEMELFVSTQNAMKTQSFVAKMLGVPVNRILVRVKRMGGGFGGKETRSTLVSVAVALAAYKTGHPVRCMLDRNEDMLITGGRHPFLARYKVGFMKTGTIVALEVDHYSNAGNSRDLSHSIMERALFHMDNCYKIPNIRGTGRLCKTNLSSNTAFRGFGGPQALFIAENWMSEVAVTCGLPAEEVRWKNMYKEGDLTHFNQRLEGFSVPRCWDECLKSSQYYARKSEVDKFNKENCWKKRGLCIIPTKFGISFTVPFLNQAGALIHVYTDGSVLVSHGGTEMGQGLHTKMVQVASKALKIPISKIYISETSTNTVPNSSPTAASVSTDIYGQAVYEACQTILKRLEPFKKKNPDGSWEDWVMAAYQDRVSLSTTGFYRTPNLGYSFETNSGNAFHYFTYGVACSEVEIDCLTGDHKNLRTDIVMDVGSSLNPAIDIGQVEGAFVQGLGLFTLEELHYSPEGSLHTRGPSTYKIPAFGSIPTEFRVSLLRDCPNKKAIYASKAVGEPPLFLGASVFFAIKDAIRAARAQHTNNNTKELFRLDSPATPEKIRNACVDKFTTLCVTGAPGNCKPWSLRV

Row | Structure (SMILES) | inhibition at 10 µM [3] [%] | further results
1 | Cc1nc(-c2ccc(OCC(C)C)c([N+](=O)[O-])c2)sc1C(=O)O | – | IC50 [1]: 33.4 nM; Activity [2]: Active
2 | Cc1cc(C(=O)O)nn1-c1ccccc1 | 13.9 | –
3 | O=C(O)c1nc(-c2ccccc2)cs1 | 18.6 | –
4 | Cc1nc(-c2ccc(OCC(C)C)c(C#N)c2)sc1C(=O)O [FEBUXOSTAT] | 98.5 | Activity [4]: Active
5 | Cc1nc(-c2ccccc2)sc1C(=O)O | 37.6 | –
6 | O=C(O)c1csc(-c2ccccc2)n1 | 32.8 | –
7 | Cc1nc(-c2ccccc2)oc1C(=O)O | 12.5 | –
8 | O=C(O)c1cc(-c2ccccc2)on1 | 4.2 | –
9 | CC(C)COc1ccc(-c2nc(C(=O)O)cs2)cc1[N+](=O)[O-] | – | IC50 [1]: 48.6 nM; Activity [2]: Active
